Data on 38 molecules can be found in patent US20230014907A1, “INHIBITORS OF APOL1 AND METHODS OF USING SAME” (Vertex Pharmaceuticals Incorporated, priority 2020, published 2023).

A value given as a limit tells only on which side of the number the result lay.

One assay deals with T1, APOL1 G1 Protein (Homo sapiens, UniProt O14791, I384M/S342G).
T1 sequence (O14791 28-398 S342G/I384M): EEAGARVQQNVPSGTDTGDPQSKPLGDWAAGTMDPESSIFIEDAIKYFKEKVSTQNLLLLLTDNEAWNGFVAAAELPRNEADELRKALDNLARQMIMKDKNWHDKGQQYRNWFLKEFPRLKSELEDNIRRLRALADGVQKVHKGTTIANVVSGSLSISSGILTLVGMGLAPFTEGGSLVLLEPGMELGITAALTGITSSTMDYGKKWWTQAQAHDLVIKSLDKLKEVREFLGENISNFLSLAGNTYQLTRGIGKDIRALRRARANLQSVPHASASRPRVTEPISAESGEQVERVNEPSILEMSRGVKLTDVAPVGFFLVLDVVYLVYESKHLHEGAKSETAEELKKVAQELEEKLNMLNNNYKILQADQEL
Kind of assay: Trypanosoma brucei brucei Lysis Assay Using APOL1 Recombinant Protein (AlamarBlue viability). The assay is classed as cell-based. The settings on record: read-out: Trypanosomal Assay (IC50). From the text: Trypanosoma brucei brucei is a blood stream parasite to which human, gorillas and baboon are immune due to the presence of the APOL1 protein in their HDL particles. The protein is uptaken by the parasite via the TbHpHb receptor located in its flagellar pocket and is bonded by the Hpr protein contained in the HDL particles which triggers the receptor endocytosis by the parasite.
Following endocytosis, the formed vesicle containing the HDL particle matures from early to late endosome, and subsequently to lysosome. The concomitant pH change in the lumen of the vesicle triggers the insertion of the APOL1 protein into the membrane of the late endosome/lysosome and hereby triggers lysosomal membrane permeabilization and as a further downstream event, trypanosome lysis. Trypanosoma brucei brucei is sensitive to lysis by all three APOL1 variants (G0, G1, and G2).
The Trypanosoma brucei brucei lysis assay is a lysis assay of the parasite using recombinant APOL1 protein variant followed by a fluorescent detection method of viability by the addition of AlamarBlue reagent to the assay well, a general metabolic redox indicator (AlamarBlue assay).
Briefly, the AlamarBlue active compound, the resazurin, a blue, water soluble, non-toxic and cell permeable molecule, which can be followed by absorbance, is reduced by various metabolic pathways into resorufin, a red compound which can be followed by either absorbance or fluorescence. The assay allows the calculation of the percent viability (percent of living Trypanosomes remaining in each well) at the end of a lysis relative to the untreated condition by interpolation of fluorescent values (FLU) on a standard curve with a known amount of seeded trypanosome/well.
Trypanosoma brucei brucei (ATCC, Cat. No. PRA-382) • Lister 427 VSG 221 bloodstream form.
Thaw/Expansion Media (ATCC Medium 2834 Modified HMI-9 Medium)
Assay Media (No Phenol Red/No FBS): Make on Day of Use
Hypoxanthine Stock (100×)-9 (10×)
Equipment • E1-Clip Tip pipette 12 channel adjustable 2-125 μL, Cat. No. 4672070BT • ThermoFisher MultiDrop 384, Cat. No. 5840300 • Multidrop • Agilent Bravo, Cat. No. G5409A • Bravo • SpectraMax M5
Trypanosoma brucei brucei Culture
Step 2, Day 4 • Centrifuge at 800×g for 5 minutes at room temperature. • Resuspend in 1 mL media. • Make a 1:25 fold dilution (10 μL/240 μL media). • Count on a hemocytometer (after adding parasites). • Let sit for 1-2 minutes for the parasites to settle. • Count should be approximately 100 viable motile parasites/16 grid or approximately 25×10^6 parasites/flask. • Passage the parasites by adding 1×10^6 parasites/T75 flask in 20 mL media. • Passage the parasites by adding 2.33×10^6 parasites/T175 flask in 46.6 mL media. • For every T75 flask should make enough for approximately 1.5×384 well assay plates. • For every T175 flask should make enough for approximately 3.8×384 well assay plates.
Step 3, Day 6 • Centrifuge at 800×g for 5 minutes. • Resuspend in 3 mL assay media (No phenol red, no FBS) per 75 starting flask. • Resuspend in 7 mL assay media (No phenol red, no FBS) per 175 flask • Make a 1:25 fold dilution. • Count by hemocytometer. • Every T75 flask set up should have approximately 75×10^6 parasites/flask (verify doubling time=8.7 hours±1 hour). • Every T175 flask set up should have approximately 175×10^6 parasites/flask (verify doubling time=8.7 hours±1 hour). • Require 46×10^6 parasites per 384 well plate (at 120,000 parasites per well). […]
A general note: The colour change of resazurin is a common sign of viable cells or microbes.

The target in another assay is T2, G1 APOL1 (Homo sapiens, UniProt O14791, I384M/S342G).
T2 construct: expressed in transfected cells
T2 sequence (O14791 28-398 S342G/I384M): T1 sequence (O14791 28-398 S342G/I384M)
In words: Acute APOL1 Thallium Assay with Inducible Stable Clones of HEK 293 Cells. The class given is cell-based. The note with it: HEK 293 inducible stable clones, G1 APOL1; read-out: Thallium Assay (IC50). In short, it runs like this:
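HEK293 T-Rex cells with a stable tetracycline-inducible G1 APOL1 construct (clone DC3.25) were induced with tetracycline at plating, 26000 cells per well, then incubated at 37° C. They were loaded with an AM-ester thallium-sensitive dye and stimulated with Tl+. The fluorescence rise measured Tl+ influx through APOL1 pores.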

As for `O=C(CCc1c(-c2ccc(F)cc2)[nH]c2ccc(F)cc12)NC(CO)CO` [Compound 22], the IC50 at APOL1 G1 Protein and at G1 APOL1 was 250 to 1000 nM each time.

In the case of `O=C(CCc1c(-c2ccc(F)cc2)[nH]c2ccc(F)cc12)N[C@H]1C[C@@H]1c1ccccc1` [Compound 23], the IC50 at APOL1 G1 Protein and on G1 APOL1 was more than 1000 nM each time.

For `O=C(CCc1c(-c2ccc(F)cc2)[nH]c2ccc(F)cc12)NCC(F)F` [Compound 24], the results for the IC50 at APOL1 G1 Protein and on G1 APOL1 were more than 1000 nM and 250 to 1000 nM, respectively.

Consider `O=C(CCc1c(-c2ccc(F)cc2)[nH]c2ccc(F)cc12)NCCO` [Compound 25], for which the IC50 at APOL1 G1 Protein and on G1 APOL1 was more than 1000 nM in each case.

With `O=C(CCc1c(-c2ccc(F)cc2)[nH]c2ccc(F)cc12)NC1CCCNC1=O` (stereo not shown) [Compound 26], the IC50 at APOL1 G1 Protein and at G1 APOL1 was more than 1000 nM throughout.

`CC1(NC(=O)OC(C)(C)C)CCN(C(=O)CCc2c(-c3ccc(F)cc3)[nH]c3ccc(F)cc23)C1` (stereo not shown) [Compound 27]: the half-maximal inhibitory concentration (IC50) at APOL1 G1 Protein and at G1 APOL1 was more than 1000 nM each time.

Regarding `C[C@H](O)[C@H](CO)NC(=O)CCc1c(-c2ccc(F)cc2)[nH]c2ccc(F)cc12` [Compound 28], the IC50 (commonly the concentration at which inhibition is half-maximal) on APOL1 G1 Protein was more than 1000 nM; at G1 APOL1 it was 250 to 1000 nM.

`O=C(CCc1c(-c2ccc(F)cc2)[nH]c2ccc(F)cc12)N[C@H]1CC[C@@H]1O` [Compound 29]: the IC50 at APOL1 G1 Protein and on G1 APOL1 was 250 to 1000 nM throughout.

Turning to `C[C@@H](CO)NC(=O)CCc1c(-c2ccc(F)cc2)[nH]c2ccc(F)cc12` [Compound 31], the IC50 at APOL1 G1 Protein was 250 to 1000 nM; on G1 APOL1, more than 1000 nM.

For `O=C(CCc1c(-c2ccc(F)cc2)[nH]c2ccc(F)cc12)NC1(CO)COC1` [Compound 32], the IC50 on APOL1 G1 Protein and on G1 APOL1 was 250 to 1000 nM in each case.

In the case of `CC(C)(C)OC(=O)NC1CCN(C(=O)CCc2c(-c3ccc(F)cc3)[nH]c3ccc(F)cc23)C1` (stereo not shown) [Compound 34], the IC50 at APOL1 G1 Protein and at G1 APOL1 was more than 1000 nM each time.

Take `NC(=O)C(CO)NC(=O)CCc1c(-c2ccc(F)cc2)[nH]c2ccc(F)cc12` (stereo not shown) [Compound 36]: the IC50 at APOL1 G1 Protein and at G1 APOL1 was more than 1000 nM throughout.

In the case of `CN(CCN)C(=O)CCc1c(-c2ccc(F)cc2)[nH]c2ccc(F)cc12` [Compound 37], the IC50 on APOL1 G1 Protein and on G1 APOL1 was more than 1000 nM each time.

Turning to `C[C@@H](O)[C@H](CO)NC(=O)CCc1c(-c2ccc(F)cc2)[nH]c2ccc(F)cc12` [Compound 38], the IC50 at APOL1 G1 Protein and at G1 APOL1 was 250 to 1000 nM each time.

Turning to `O=C(CCc1c(-c2ccc(F)cc2)[nH]c2ccc(F)cc12)NCC(F)(F)F` [Compound 39], the IC50 was more than 1000 nM on APOL1 G1 Protein and 250 to 1000 nM on G1 APOL1.

Consider `O=C(CCc1c(-c2ccc(F)cc2)[nH]c2ccc(F)cc12)NC1(CO)CC1` [Compound 40], for which the IC50 at APOL1 G1 Protein and at G1 APOL1 was 250 to 1000 nM in each case.

As for `CN1CC(NC(=O)CCc2c(-c3ccc(F)cc3)[nH]c3ccc(F)cc23)C(=O)N1` (stereo not shown) [Compound 41], the IC50 at APOL1 G1 Protein and on G1 APOL1 was more than 1000 nM throughout.

With `O=C(CCc1c(-c2ccc(F)cc2)[nH]c2ccc(F)cc12)N1CCC(O)C1` (stereo not shown) [Compound 42], the IC50 on APOL1 G1 Protein and on G1 APOL1 was more than 1000 nM throughout.

Regarding `O=C(CCc1c(-c2ccc(F)cc2)[nH]c2ccc(F)cc12)NCC1COC1` [Compound 43], the IC50 at APOL1 G1 Protein and on G1 APOL1 was more than 1000 nM throughout.

As for `O=C(CCc1c(-c2ccc(F)cc2)[nH]c2ccc(F)cc12)NC1CC1c1ccc(F)cc1` (stereo not shown) [Compound 44], the IC50 on APOL1 G1 Protein and at G1 APOL1 was more than 1000 nM each time.

Take `O=C(CCc1c(-c2ccc(F)cc2)[nH]c2ccc(F)cc12)NC1CC1(F)F` (stereo not shown) [Compound 45]: the half-maximal inhibitory concentration (IC50) on APOL1 G1 Protein was more than 1000 nM; at G1 APOL1, 250 to 1000 nM.

As for `O=C(CCc1c(-c2ccc(F)cc2)[nH]c2ccc(F)cc12)Nc1cn[nH]c1` [Compound 46], the IC50 on APOL1 G1 Protein and at G1 APOL1 was more than 1000 nM in each case.

`O=C(CCc1c(-c2ccc(F)cc2)[nH]c2ccc(F)cc12)NC1CC(F)(F)C1` [Compound 47]: the IC50 on APOL1 G1 Protein was more than 1000 nM; on G1 APOL1, 250 to 1000 nM.

As to `O=C(CCc1c(-c2ccc(F)cc2)[nH]c2ccc(F)cc12)N[C@@H]1CCC[C@H]1O` [Compound 48], the IC50 at APOL1 G1 Protein and at G1 APOL1 was more than 1000 nM each time.

Take `NC1CCN(C(=O)CCc2c(-c3ccc(F)cc3)[nH]c3ccc(F)cc23)C1` (stereo not shown) [Compound 49]: the IC50 on APOL1 G1 Protein and on G1 APOL1 was more than 1000 nM each time.

In the case of `O=C(CCc1c(-c2ccc(F)cc2)[nH]c2ccc(F)cc12)N[C@H](CO)C(F)(F)F` [Compound 50], the IC50 at APOL1 G1 Protein and on G1 APOL1 was more than 1000 nM in each case.

Turning to `CC(CO)N(C)C(=O)CCc1c(-c2ccc(F)cc2)[nH]c2ccc(F)cc12` (stereo not shown) [Compound 51], the IC50 at APOL1 G1 Protein and at G1 APOL1 was more than 1000 nM throughout.

In the case of `CC(C)(C)OC(=O)NC1CN(C(=O)CCc2c(-c3ccc(F)cc3)[nH]c3ccc(F)cc23)C1` [Compound 52], the IC50 at APOL1 G1 Protein and at G1 APOL1 was more than 1000 nM in each case.

`NCC1CCCCN1C(=O)CCc1c(-c2ccc(F)cc2)[nH]c2ccc(F)cc12` (stereo not shown) [Compound 53]: the IC50 on APOL1 G1 Protein and on G1 APOL1 was more than 1000 nM in each case.

As to `N[C@H]1C[C@H](NC(=O)CCc2c(-c3ccc(F)cc3)[nH]c3ccc(F)cc23)C1` [Compound 54], the IC50 on APOL1 G1 Protein and on G1 APOL1 was more than 1000 nM throughout.

As to `O=C(CCc1c(-c2ccc(F)cc2)[nH]c2ccc(F)cc12)N1CCC(F)C1` (stereo not shown) [Compound 55], the IC50 on APOL1 G1 Protein and at G1 APOL1 was more than 1000 nM in each case.

In the case of `NC1CCCN(C(=O)CCc2c(-c3ccc(F)cc3)[nH]c3ccc(F)cc23)C1` (stereo not shown) [Compound 56], the IC50 at APOL1 G1 Protein and on G1 APOL1 was more than 1000 nM each time.

As to `CC(C)(C)OC(=O)N[C@H]1C[C@H](NC(=O)CCc2c(-c3ccc(F)cc3)[nH]c3ccc(F)cc23)C1` [Compound 57], the IC50 on APOL1 G1 Protein and at G1 APOL1 was more than 1000 nM each time.

Regarding `O=C(CCc1c(-c2ccc(F)cc2)[nH]c2ccc(F)cc12)N1CC(O)C1` [Compound 58], the IC50 at APOL1 G1 Protein and on G1 APOL1 was more than 1000 nM throughout.

`CC(C)(C)OC(=O)NC1CCC(NC(=O)CCc2c(-c3ccc(F)cc3)[nH]c3ccc(F)cc23)C1` (stereo not shown) [Compound 60]: the IC50 on APOL1 G1 Protein and on G1 APOL1 was more than 1000 nM in each case.

As to `C[C@H](NC(=O)CCc1c(-c2ccc(F)cc2)[nH]c2ccc(F)cc12)C(N)=O` [Compound 61], the IC50 at APOL1 G1 Protein and at G1 APOL1 was more than 1000 nM in each case.

Turning to `O=C(CCc1c(-c2ccc(F)cc2)[nH]c2ccc(F)cc12)NC1CONC1=O` (stereo not shown) [Compound 63], the IC50 at APOL1 G1 Protein and at G1 APOL1 was more than 1000 nM each time.

For the molecule `O=C(CCc1c(-c2ccc(F)cc2)[nH]c2ccc(F)cc12)NCC1(O)CCC1` [Compound 64], the IC50 on APOL1 G1 Protein and on G1 APOL1 was more than 1000 nM each time.
